Experiments:
[1] = tested on: glatten Coronar-Muskulatur; test: k-Strophanthin-induced tone of pig coronary smooth muscle; parameters: species or system Schwein; conditions: higher concentration of k-Strophanthin, partial restitution by raised extracellular Ca++ (Fig. 15)
Source text: Teilweise Restitution des Coronartonus durch Steigerung der extra-cellulären Ca^++-Konzentration.

[2] = tested on: K^+-Kontraktur isolierter Coronararterienstreifen; test: K+ contracture of isolated pig coronary artery strips; parameters: species or system Schwein
Source text: Partielle Restitution der mechanischen Spannungsentwicklung durch Extra-Calcium.

Ca^++-Einstrom = test: Isolated guinea pig papillary muscle: intracellular action potentials and isometric mechanograms; parameters: species or system Meerschweinchen
Source text: Die Aktionspotentiale […] an ein und derselben Myocardfaser gewonnen. Die einzelnen Konzentrationen kamen jeweils für die Dauer von 40 Minuten zur Anwendung.

[3] = tested on: isolierte, nach Langendorff perfundierte Meerschweinchenherz; test: Isolated Langendorff-perfused guinea pig heart: coronary flow, contraction amplitude, heart rate; parameters: species or system Meerschweinchen
Source text: Meerschweinchen wurden durch Genickschlag getötet, der Thorax eröffnet, der Herzbeutel aufgeschnitten, die Aorta mit einem Faden angeschlungen und in der pars ascendens angeschnitten. Nach Einbinden einer Glaskanüle in die Aorta wurde die aorta pulmonalis eröffnet und anschliessend das Coronargefässsystem durch die Aortenkanüle unter leichten Druck mit einer Spitze durchgespült. Nach Dulchirennung aller anhängenden Gefässe wurde das Herz an der Aortenkanüle in die feuchte Kammer einer modifizierten Langendorff-Apparatur gehängt und mit carbogengesättigter Tyrodelösung von 37^uC mit einem Druck von 55 cm H20 perfundiert. An der Herzspitze wurde eine Serre fine angebracht, die über einen Faden mit einem zweiarmigen Hebel verbunden war, der die Kontraktionsamplitude auf einem Russkymographen aufzeichnete. Alle Herzen waren mit 4 g belastet. Der Schreibhebel passierte bei seinen Ausschlägen die Lichtschranke einer Fotozelle. Dadurch konnte die Herzfrequenz über einen Totalisator (nach FLEISCH, Firma B. Braun, Melsungen) registriert werden. Die aus dem rechten Vorhof frei abfliessende Perfusionslösung tropfte auf einen elektrischen Kontakt. Die Tropfenzahl wurde mittels eines zweiten Totalisators aufgezeichnet,und nach Eichung in ml/min der Coronardurchfluss bestimmt.
Nach Fertigstellung der Präparate wurde bis zum Versuchsbeginn 45 Min. gewartet. Nach dieser Zeit hatten Kontaktionsamplitude, Frequenz und Coronardurchblutung ein konstantes Niveau erreicht.
Caroverin wurde in Einzeldosen von 1, 10, 100 sowie 1000 ug verabreicht. Theophyllin wurde in Dosen von 10, 100 sowie 1000 ug gegeben. In allen Versuchen wurden Caroverin und Theophyllin abwechselnd verabreicht, wobei jeweils eine Zeitspanne von 5 Min. zwischen zwei Einzelinjektionen lag. Alle Injektionsvolumina betrugen 0.1 ml.
Die Effekte der Substanzen wurden ermittelt,indem in jedem Versuch bei jeder Einzeldosis die maximalen Zu- bzw. Abnahmen der entsprechenden Parameter gegenüber dem jeweiligen Ausganswert bestimmt und diese Einzeleffekte gemittelt wurden. Statistische Signifikanzberechnungen erfolgten nach dem t-Test (student's-Test).

With `CCN(CC)CCn1c(=O)c(Cc2ccc(OC)cc2)nc2ccccc21` [Caroverin, 1-(2-diäthylaminoäthyl)-3-(p-methoxybenzyl)-1,2-dihydroquinoxalon-2] the “tonussteigernde Effekte von k-Strophanthin” value [1] was “Neutralisation der tonussteigernden Effekte”, the inhibition at 0.25 µg/mL ([2]; Sus scrofa, pig, 0,25 mg Caroverin/l (Fig. 13 and 14), read-out: elektromechanische Entkoppelung K^+-depolarisierter Coronararterienstreifen) was about 50% and the “K^+-Kontraktur isolierter Coronararterienstreifen” value ([2]; pig, rising concentrations 0,05, 0,1 and 0,5 mg/l, partial restitution by extra calcium (Fig. 13)) was “Hemmungen der K^+-Kontraktur”. The “K^+-Kontraktur isolierter Coronararterien-Streifen” value ([2]; pig, rising concentrations 1,0, 2,0 and 5,0 mg/l, partial restitution by extra calcium at 1 mg/l (Fig. 14)) was “Hemmung der K^+-Kontraktur”, the “elektrische Parameter Ca^++-getragener Aktionspotentiale (AP-Amplitude, max. Aufstrichsteilheit, AP-Dauer) und zugehörige Mechanogramme” value (Ca^++-Einstrom; about the same concentration range (10 mg/l)) was “hemmt” and the “Blockade des Ca^++-Einstroms während der Erregung” value (Ca^++-Einstrom; electrically stimulated isolated guinea pig papillary muscle, 10 mg Caroverin/l (Fig. 12)) was about 50%. The “transmembranäre Na- und K^+-Fluxe” value (Ca^++-Einstrom; isolated guinea pig papillary muscle, 10 mg Caroverin/l) was “ohne die transmembranären Na - und K^+-Fluxe zu reduzieren”, the Herzfrequenz ([3]; 100 µg, in all experiments) was “langanhaltenden frequenzsenkenden Effekt” and the Kontraktionsamplitude ([3]; 100 µg, p < 0.01) was “verminderte die Kontraktionsamplitude signifikant”. The Coronardurchfluss ([3]; single doses Caroverin 1-1000 ug, Theophyllin 10-1000 ug, 1000 Theophyllin about equal to 100 Caroverin) was “dosisabhängige, coronardurchflusssteigernde Wirkung”.
